Experiments:
[1] = test system: hepatocellular carcinoma patients treated with TACE; experiment: Comparative clinical study of TSU-68 administration vs non-administration after TACE (progression-free survival); type: in vivo, human
Procedure: A comparative clinical study was conducted for the TSU-68 administration group and the TSU-68 non-administration group consisting of cases diagnosed as hepatocellular carcinoma that were impossible to treat with hepatectomy and PAT and had been treated with TACE. The antitumor agent used herein for TACE was epirubicin.
The subject cases were randomly assigned to the TSU-68 administration group and the TSU-68 non-administration group. TSU-68 administration was initiated for cases assigned to the TSU-68 administration group within 2 weeks after TACE. TSU-68 was administered orally at a dose of 200 mg per administration twice daily after breakfast and dinner on consecutive days. No further cancer treatment was given to the TSU-68 non-administration group after TACE and thus only follow-up observation was carried out.
Progression-free survival was defined as survival within the period from the day of TACE designated as the initial date of reckoning to any of dates on which the following events was observed, whichever came first.
1. Date on which the presence of progressive disease (hereinafter referred to as “PD”) was confirmed as a result of assessment of best overall response (date of testing). 2. Date on which a test subject died for any reason (date of death). 3. Date on which a test subject was assessed to have experienced clinically obvious deterioration of the disease or to be in need of post-TACE treatment even without confirmation of PD upon assessment of best overall response (date of assessment).
Best overall response was evaluated by measuring tumor diameters by CT and assaying tumor markers (AFP, PIVKA-II, and AFP-L3 fractions) according to New Guideline to Evaluate the Response to Treatment in Solid Tumor (hereinafter referred to as “RECIST”) (J Natl Cancer Inst 92: 205, 2000).
The expression levels of PDGF-BB and IL-8 in blood obtained before TSU-68 administration after TACE were determined using ELISA Kits as described below.
Cut-off points were determined by the statistical analysis technique described below based on the quantified PDGF-BB and IL-8 levels.
(1) The cut-off point for dividing patients into the PDGF-BB hyperexpression group and the PDGF-BB underexpression group was calculated so that the difference between the 6-month-progression-free survival rate for the TSU-68 administration group and the 6-month-progression-free survival rate for the TSU-68 non-administration group was 20% or more for patients in the PDGF-BB hyperexpression group. The cut-off point was 1480 to 2030 pg/ml. (2) The cut-off point for dividing patients into the PDGF-BB hyperexpression group and the PDGF-BB underexpression group was calculated so that the hazard ratio of the TSU-68 administration group to the TSU-68 non-administration group was 0.6 or less for patients in the PDGF-BB hyperexpression group. The cut-off point was 1740 to 1960 pg/ml. (3) The cut-off point for dividing patients into the IL-8 hyperexpression group and the IL-8 underexpression group was calculated so that the difference between the 6-month-progression-free survival rate for the TSU-68 administration group and the 6-month-progression-free survival rate for the TSU-68 non-administration group was 20% or more for cases in the IL-8 hyperexpression group. The cut-off point was 2.1 to 6.6 pg/ml. (4) The cut-off point for dividing patients into the IL-8 hyperexpression group and the IL-8 underexpression group was calculated so that the hazard ratio of the TSU-68 administration group to the TSU-68 non-administration group was 0.6 or less for cases in the IL-8 hyperexpression group. The cut-off point was 2.1 to 10.5 pg/ml.
The PDGF-BB hyperexpression group, the PDGF-BB underexpression group, the IL-8 hyperexpression group, and the IL-8 underexpression group were subjected to survival time analysis of the TSU-68 administration group and the TSU-68 non-administration group with the use of the cut-off points calculated in Example 1.

[2] = test system: human cancer cell lines subcutaneously implanted (lung cancer, colon cancer, ovarian cancer); conditions: oral administration of TSU-68 alone, Non-Patent Literature 3; cited from earlier work
[3] = IL-8 hyperexpression group, cut-off 2.1 pg/ml, vs non-administration
[4] = IL-8 hyperexpression group, cut-off 6.6 pg/ml, vs non-administration
[5] = IL-8 hyperexpression group, cut-off 10.5 pg/ml, vs non-administration
[6] = IL-8 underexpression group, cut-off 6.6 pg/ml, vs non-administration
[7] = IL-8 underexpression group, cut-off 10.5 pg/ml, vs non-administration
[8] = PDGF-BB hyperexpression group, cut-off 1480 pg/ml, vs non-administration
[9] = PDGF-BB hyperexpression group, cut-off 1740 pg/ml, vs non-administration
[10] = PDGF-BB hyperexpression group, cut-off 1960 pg/ml, vs non-administration
[11] = PDGF-BB hyperexpression group, cut-off 2030 pg/ml, vs non-administration
[12] = PDGF-BB underexpression group, cut-off 1480 pg/ml, vs non-administration
[13] = PDGF-BB underexpression group, cut-off 1740 pg/ml, vs non-administration
[14] = PDGF-BB underexpression group, cut-off 1960 pg/ml, vs non-administration
[15] = PDGF-BB underexpression group, cut-off 2030 pg/ml, vs non-administration
[16] = patients having high PDGF-BB or IL-8 blood levels (summary over cut-off points), vs non-administration
[17] = stratified using reported VCAM cut-off point 2370 pg/ml (data not shown), vs non-administration

## Cc1[nH]c(/C=C2\C(=O)Nc3ccccc32)c(C)c1CCC(=O)O [TSU-68, (Z)-5-[(1,2-dihydro-2-oxo-3H-indol-3-ylidene)methyl]2,4-dimethyl-1H-pyrro 1-3-propanoic acid]
[1]; IL-8 hyperexpression group, cut-off 2.1 pg/ml
  6-month-progression-free survival rates: 48%
[1]; [3]
  Difference between 6-month-progression-free survival rate: 23%
  Hazard ratio: 0.51
[1]; IL-8 hyperexpression group, cut-off 6.6 pg/ml
  6-month-progression-free survival rate: 50%
[1]; [4]
  Difference between 6-month-progression-free survival rates: 20%
  Hazard ratio: 0.51
[1]; IL-8 hyperexpression group, cut-off 10.5 pg/ml
  6-month-progression-free survival rate: 56%
[1]; [5]
  Difference between 6-month-progression-free survival rates: 27%
  Hazard ratio: 0.51
[1]; IL-8 underexpression group, cut-off 2.1 pg/ml
  6-month-progression-free survival rates: 0%
[1]; IL-8 underexpression group, cut-off 2.1 pg/ml, vs non-administration
  Difference between 6-month-progression-free survival rate: −57%
[1]; IL-8 underexpression group, cut-off 6.6 pg/ml
  6-month-progression-free survival rate: 39%
[1]; [6]
  Difference between 6-month-progression-free survival rates: 9%
  Hazard ratio: 0.92
[1]; IL-8 underexpression group, cut-off 10.5 pg/ml
  6-month-progression-free survival rate: 41%
[1]; [7]
  Difference between 6-month-progression-free survival rates: 11%
  Hazard ratio: 0.79
[1]; PDGF-BB hyperexpression group, cut-off 1480 pg/ml
  6-month-progression-free survival rate: 52%
[1]; [8]
  Difference between 6-month-progression-free survival rates: 21%
  Hazard ratio: 0.64
[1]; PDGF-BB hyperexpression group, cut-off 1740 pg/ml
  6-month-progression-free survival rate: 52%
[1]; [9]
  Difference between 6-month-progression-free survival rates: 25%
  Hazard ratio: 0.59
[1]; PDGF-BB hyperexpression group, cut-off 1960 pg/ml
  6-month-progression-free survival rate: 52%
[1]; [10]
  Difference between 6-month-progression-free survival rates: 25%
  Hazard ratio: 0.55
[1]; PDGF-BB hyperexpression group, cut-off 2030 pg/ml
  6-month-progression-free survival rate: 52%
[1]; [11]
  Difference between 6-month-progression-free survival rates: 24%
  Hazard ratio: 0.62
[1]; PDGF-BB underexpression group, cut-off 1480 pg/ml
  6-month-progression-free survival rate: 25%
[1]; [12]
  Difference between 6-month-progression-free survival rates: 2%
  Hazard ratio: 0.73
[1]; PDGF-BB underexpression group, cut-off 1740 pg/ml
  6-month-progression-free survival rate: 40%
[1]; [13]
  Difference between 6-month-progression-free survival rates: 2%
  Hazard ratio: 0.85
[1]; PDGF-BB underexpression group, cut-off 1960 pg/ml
  6-month-progression-free survival rate: 40%
[1]; [14]
  Difference between 6-month-progression-free survival rates: 7%
  Hazard ratio: 0.84
[1]; PDGF-BB underexpression group, cut-off 2030 pg/ml
  6-month-progression-free survival rate: 42%
[1]; [15]
  Difference between 6-month-progression-free survival rates: 10%
  Hazard ratio: 0.75
[1]; all cases, TSU-68 200 mg orally twice daily after TACE
  6-month-progression-free survival rate: 47%
[1]; all cases, TSU-68 administration to non-administration group
  Hazard ratio: 0.69
[1]; all cases, TSU-68 administration vs non-administration group
  Difference between 6-month-progression-free survival rates: 18%
[1]; [16]
  Difference between 6-month-progression-free survival rates: 22% to 27
  Hazard ratio: 0.51 to 0.68
[1]; [17]
  Difference between 6-month-progression-free survival rates: < 20%
  Hazard ratio: > 0.6
[2]
  antitumor effects (tumor growth inhibition): effective for inhibiting tumor growth
